Activity calls are given as the source filed them. The rule behind the calls is not given here.
Experiments:
Mus musculus [1] = test: Anticonvulsant activity against Swiss mouse seizure model assessed as protection at 100 mg/kg, ip pretreated for 0.25 hrs by 6 Hz psychomotor seizure test; type: functional, organism-based
Mus musculus [2] = test: Anticonvulsant activity in ip dosed Swiss mouse assessed as reduction in clonic seizures at 0.5 hrs by subcutaneous pentylenetetrazole seizure test; type: functional
[3] = Protective index, ratio of TD50 for neurotoxicity in ip dosed Swiss mouse to ED50 for anticonvulsant activity in ip dosed MES Swiss mouse model at 0.25 hrs; type: toxicity, organism-based; conditions: in vivo, read-out: Ratio TD50/ED50
[4] = Protective index, ratio of TD50 for neurotoxicity in ip dosed Swiss mouse to ED50 for anticonvulsant activity in ip dosed scPTZ Swiss mouse model at 0.25 hrs; type: toxicity, organism-based; conditions: in vivo, read-out: Ratio TD50/ED50
[5] = Protective index, ratio of TD50 for neurotoxicity in ip dosed Swiss mouse to ED50 for anticonvulsant activity in ip dosed Swiss mouse 6 Hz psychomotor seizure model at 0.25 hrs; type: toxicity, organism-based; conditions: in vivo, read-out: Ratio TD50/ED50
Mus musculus [6] = test: Anticonvulsant activity in ip dosed Swiss mouse assessed as protection against maximal electroshock-induced seizures at 0.5 hrs; type: functional
[7] = Neurotoxicity in ip dosed Swiss mouse seizure model assessed as motor impairment pretreated for 0.25 hrs measured within 60 s by chimney test; type: toxicity, organism-based; conditions: in vivo
[8] = Protective index, ratio of TD50 for neurotoxicity in ip dosed Swiss mouse to ED50 for anticonvulsant activity in ip dosed Swiss mouse 6 Hz psychomotor seizure model at 0.5 hrs; type: toxicity, organism-based; conditions: in vivo, read-out: Ratio TD50/ED50
Mus musculus [9] = test: Anticonvulsant activity in Swiss mouse assessed as protection against maximal electroshock-induced seizures at 300 mg/kg, ip pretreated for 0.5 hrs; type: functional, organism-based
Mus musculus [10] = test: Anticonvulsant activity in Swiss mouse assessed as protection against maximal electroshock-induced seizures at 300 mg/kg, ip pretreated for 2 hrs; type: functional, organism-based
Mus musculus [11] = test: Anticonvulsant activity in Swiss mouse assessed as protection against maximal electroshock-induced seizures at 100 mg/kg, ip pretreated for 2 hrs; type: functional, organism-based
Mus musculus [12] = test: Anticonvulsant activity against Swiss mouse seizure model assessed as protection at 100 mg/kg, ip pretreated for 0.5 hrs by 6 Hz psychomotor seizure test; type: functional, organism-based
Mus musculus [13] = test: Anticonvulsant activity in ip dosed Swiss mouse assessed as prolong latency to first seizure episode pretreated for 0.5 hrs measured after 30 mins by subcutaneous pentylenetetrazole seizure test; type: functional, organism-based
Mus musculus [14] = test: Anticonvulsant activity in Swiss mouse assessed as prolong latency to first seizure episode at 60 mg/kg pretreated for 0.5 hrs measured after 30 mins by subcutaneous pentylenetetrazole seizure test; type: functional, organism-based
Mus musculus [15] = test: Anticonvulsant activity against ip dosed Swiss mouse seizure model assessed as protection at 0.25 hrs by 6 Hz psychomotor seizure test; type: functional
Mus musculus [16] = test: Anticonvulsant activity in ip dosed Swiss mouse assessed as protection against maximal electroshock-induced seizures at 0.25 hrs; type: functional
Mus musculus [17] = test: Anticonvulsant activity in ip dosed Swiss mouse assessed as reduction in clonic seizures at 0.25 hrs by subcutaneous pentylenetetrazole seizure test; type: functional
Mus musculus [18] = test: Anticonvulsant activity against ip dosed Swiss mouse seizure model assessed as protection at 0.5 hrs by 6 Hz psychomotor seizure test; type: functional
[19] = Neurotoxicity in ip dosed Swiss mouse seizure model assessed as motor impairment pretreated for 0.5 hrs measured within 60 s by chimney test; type: toxicity, organism-based; conditions: in vivo
[20] = Protective index, ratio of TD50 for neurotoxicity in ip dosed Swiss mouse to ED50 for anticonvulsant activity in ip dosed MES Swiss mouse model at 0.5 hrs; type: toxicity, organism-based; conditions: in vivo, read-out: Ratio TD50/ED50
[21] = Protective index, ratio of TD50 for neurotoxicity in ip dosed Swiss mouse to ED50 for anticonvulsant activity in ip dosed scPTZ Swiss mouse model at 0.5 hrs; type: toxicity, organism-based; conditions: in vivo, read-out: Ratio TD50/ED50
Mus musculus [22] = test: Potency index, ratio of ethosuximide ED50 to compound ED50 for anticonvulsant activity in ip dosed scPTZ Swiss mouse model at 0.25 hrs; type: functional
Rattus norvegicus [23] = species on record: Rattus norvegicus; test: Displacement of [3H]Batrachotoxinin from sodium channel site 2 in rat cerebral cortex at 100 uM after 60 mins by scintillation counting method; type: tissue-based
Rattus norvegicus [24] = species on record: Rattus norvegicus; test: Displacement of [3H]Batrachotoxinin from sodium channel site 2 in rat cerebral cortex at 500 uM after 60 mins by scintillation counting method; type: tissue-based
Rattus norvegicus [25] = species on record: Rattus norvegicus; test: Displacement of [3H]nitrendipine from calcium channel L-Type dihydropyridine site in rat cerebral cortex at 100 uM after 120 mins by scintillation counting method; type: tissue-based
Rattus norvegicus [26] = species on record: Rattus norvegicus; test: Displacement of [3H]nitrendipine from calcium channel L-Type dihydropyridine site in rat cerebral cortex at 500 uM after 120 mins by scintillation counting method; type: tissue-based
[27] = biological target: T1, Glutamate NMDA receptor (Rattus norvegicus) (UniProt P35439+Q00959+Q00960+Q00961+Q62645+Q8VHN2+Q9R1M7); test: Displacement of [3H]CGP-39653 from NMDA receptor in rat cerebral cortex at 100 uM after 60 mins by scintillation counting method; type: tissue-based
[28] = biological target: T1, Glutamate NMDA receptor (Rattus norvegicus); test: Displacement of [3H]CGP-39653 from NMDA receptor in rat cerebral cortex at 500 uM after 60 mins by scintillation counting method; type: tissue-based
Mus musculus [29] = test: Antinociceptive activity in ip dosed Swiss mouse assessed as reduction of formalin-induced licking at MES ED50 pretreated for 0.5 hrs measured during 1 to 5 mins; type: functional, organism-based
Mus musculus [30] = test: Antinociceptive activity in ip dosed Swiss mouse assessed as reduction of formalin-induced licking at MES ED50 pretreated for 0.5 hrs measured during 15 to 20 mins; type: functional; design: scale not given: the % may be the effect or the level left

## CC1CC(=O)N(C(C)C(=O)N2CCN(c3cccc(C(F)(F)F)c3)CC2)C1=O (stereo not given)
Mus musculus [1]
  Activity: Active
Mus musculus [2]
  ED50: 51.6 mg/kg
[3]
  selectivity ratio at 0.25 h: 3.49
[4]
  selectivity ratio at 0.25 h: 4.33
[5]
  selectivity ratio at 0.25 h: 11.6
Mus musculus [6]
  ED50: 74.8 mg/kg
[7]
  TD50 at 0.25 h: 285 mg/kg
[8]
  selectivity ratio at 0.5 h: 12.7
Mus musculus [9]
  Activity: Active
Mus musculus [10]
  Activity: Active
Mus musculus [11]
  Activity: inactive
Mus musculus [12]
  Activity: Active
Mus musculus [13]
  Activity: Dose-dependent effect
Mus musculus [14]
  Activity: Active
Mus musculus [15]
  ED50: 24.6 mg/kg
Mus musculus [16]
  ED50: 81.7 mg/kg
Mus musculus [17]
  ED50: 65.7 mg/kg
Mus musculus [18]
  ED50: 16.8 mg/kg
[19]
  TD50 at 0.5 h: 213 mg/kg
[20]
  selectivity ratio at 0.5 h: 2.85
[21]
  selectivity ratio at 0.5 h: 4.13
Mus musculus [22]
  Ratio ED50: 2.2
Rattus norvegicus [23]
  inhibition: 29.9%
Rattus norvegicus [24]
  inhibition: 76.3%
Rattus norvegicus [25]
  inhibition: 38.1%
Rattus norvegicus [26]
  inhibition: 78.5%
[27]
  Activity: inactive
[28]
  Activity: inactive
Mus musculus [29]
  Activity: inactive
Mus musculus [30]
  Activity: 84%

Source: ChEMBL document CHEMBL3745637, “New hybrid molecules with anticonvulsant and antinociceptive activity derived from 3-methyl- or 3,3-dimethyl-1-[1-oxo-1-(4-phenylpiperazin-1-yl)propan-2-yl]pyrrolidine-2,5-diones” (Bioorg Med Chem, 2016)
